In patent publication US12643871B2, “Aryl formamide compound containing chiral sulfur oxide or salt thereof, preparation method, herbicidal composition and use thereof” (Qingdao Kingagroot Chemical Compound Co., Ltd., priority 2019, dated 2026):

Legend:
Assay in all cases: Weeding effect in post-emergence stage
Assay type in all cases: in vivo
Conditions in all cases: 250 g/ha; 2 leaf stage; 15 days after application; fresh weight control rate
Amaranthus retroflexus = test system: Amaranthus retroflexus
Procedure, shortened: (§1)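 Reported levels reflect fresh weight growth control rate banded 0 (<5%) through 5 (>85%), averaged over three repetitions. Treatment: foliar spray of 2-leaf-stage greenhouse plants at 15 to 500 g/ha, with 1.5 liter/ha methyl oleate synergist; assessment 15 days after application.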

Echinochloa crusgali = test system: Echinochloa crusgali
Procedure, shortened: as §1

Setaria viridis = test system: Setaria viridis
Procedure, shortened: as §1

Digitaria sanguinalis = test system: Digitaria sanguinalis
Procedure, shortened: as §1

Abutilon theophrasti = test system: Abutilon theophrasti
Procedure, shortened: as §1

| Compound | weeding effect in post-emergence stage, activity level (growth control rate), Amaranthus retroflexus (Amaranthus retroflexus) | weeding effect in post-emergence stage, activity level (growth control rate), Echinochloa crusgali (Echinochloa crusgali) | weeding effect in post-emergence stage, activity level (growth control rate), Setaria viridis (Setaria viridis) | weeding effect in post-emergence stage, activity level (growth control rate), Digitaria sanguinalis (Digitaria sanguinalis) | weeding effect in post-emergence stage, activity level (growth control rate), Abutilon theophrasti (Abutilon theophrasti) |
| --- | --- | --- | --- | --- | --- |
| CC[S+]([O-])c1c(C(F)(F)F)ccc(C(=O)N(c2nnc(C)o2)C(C)OC(=O)OC)c1OC (mixture of isomers) [Compound 421] | 5 (Level 5: growth control rate is above 85%) | 5 (Level 5: growth control rate is above 85%) | 5 (Level 5: growth control rate is above 85%) | 5 (Level 5: growth control rate is above 85%) | 5 (Level 5: growth control rate is above 85%) |
| Cc1c(C(=O)Nc2nnnn2C)ccc(S(C)(=O)=O)c1[S@+]([O-])CCF [Compound 519] | 5 (Level 5: growth control rate is above 85%) | 5 (Level 5: growth control rate is above 85%) |  | 5 (Level 5: growth control rate is above 85%) | 5 (Level 5: growth control rate is above 85%) |
| Cc1c(C(=O)Nc2nnnn2C)ccc(S(C)(=O)=O)c1[S@+]([O-])CC(F)(F)F [Compound 520] | 5 (Level 5: growth control rate is above 85%) | 5 (Level 5: growth control rate is above 85%) |  | 5 (Level 5: growth control rate is above 85%) | 5 (Level 5: growth control rate is above 85%) |
| Cc1c(C(=O)Nc2nnnn2C)ccc(S(C)(=O)=O)c1[S@+]([O-])CC(C)F (stereo partly shown) [Compound 521] | 5 (Level 5: growth control rate is above 85%) | 5 (Level 5: growth control rate is above 85%) |  | 5 (Level 5: growth control rate is above 85%) | 5 (Level 5: growth control rate is above 85%) |
| Cc1c(C(=O)Nc2nnnn2C)ccc(S(C)(=O)=O)c1[S@+]([O-])CC(F)F [Compound 522] | 5 (Level 5: growth control rate is above 85%) | 5 (Level 5: growth control rate is above 85%) |  | 5 (Level 5: growth control rate is above 85%) | 5 (Level 5: growth control rate is above 85%) |
| Cc1c(C(=O)Nc2nnnn2C)ccc(S(C)(=O)=O)c1[S@+]([O-])CCCF [Compound 523] | 5 (Level 5: growth control rate is above 85%) | 5 (Level 5: growth control rate is above 85%) |  | 5 (Level 5: growth control rate is above 85%) | 5 (Level 5: growth control rate is above 85%) |
| Cc1c(C(=O)Nc2nnnn2C)ccc(S(C)(=O)=O)c1[S@+]([O-])CCC(F)(F)F [Compound 524] | 5 (Level 5: growth control rate is above 85%) | 5 (Level 5: growth control rate is above 85%) |  | 5 (Level 5: growth control rate is above 85%) | 5 (Level 5: growth control rate is above 85%) |
| Cc1c(C(=O)Nc2nnnn2C)ccc(S(C)(=O)=O)c1[S@+]([O-])CCCl [Compound 525] | 5 (Level 5: growth control rate is above 85%) | 5 (Level 5: growth control rate is above 85%) |  | 5 (Level 5: growth control rate is above 85%) | 5 (Level 5: growth control rate is above 85%) |
| Cc1c(C(=O)Nc2nnnn2C)ccc(S(C)(=O)=O)c1[S@+]([O-])CCCCl [Compound 526] | 5 (Level 5: growth control rate is above 85%) | 5 (Level 5: growth control rate is above 85%) |  | 5 (Level 5: growth control rate is above 85%) | 5 (Level 5: growth control rate is above 85%) |
| Cc1c(C(=O)Nc2nnnn2C)ccc(S(C)(=O)=O)c1[S@+]([O-])CC#N [Compound 527] | 5 (Level 5: growth control rate is above 85%) | 5 (Level 5: growth control rate is above 85%) |  | 5 (Level 5: growth control rate is above 85%) | 5 (Level 5: growth control rate is above 85%) |
| COCC[S@@+]([O-])c1c(S(C)(=O)=O)ccc(C(=O)Nc2nnnn2C)c1C [Compound 528] | 5 (Level 5: growth control rate is above 85%) | 5 (Level 5: growth control rate is above 85%) |  | 5 (Level 5: growth control rate is above 85%) | 5 (Level 5: growth control rate is above 85%) |
| CCC[S@@+]([O-])c1c(C(F)(F)F)ccc(C(=O)Nc2nnc(C)o2)c1OCOC [Compound 536] | 5 (Level 5: growth control rate is above 85%) | 5 (Level 5: growth control rate is above 85%) |  | 5 (Level 5: growth control rate is above 85%) | 5 (Level 5: growth control rate is above 85%) |
| CCC[S@@+]([O-])c1c(C(F)(F)F)ccc(C(=O)Nc2nnc(C)o2)c1C [Compound 537] | 5 (Level 5: growth control rate is above 85%) | 5 (Level 5: growth control rate is above 85%) |  | 5 (Level 5: growth control rate is above 85%) | 5 (Level 5: growth control rate is above 85%) |
| CCC[S@@+]([O-])c1c(C(F)(F)F)ccc(C(=O)Nc2nnc(C)o2)c1CC [Compound 538] | 5 (Level 5: growth control rate is above 85%) | 5 (Level 5: growth control rate is above 85%) |  | 5 (Level 5: growth control rate is above 85%) | 5 (Level 5: growth control rate is above 85%) |
| CCC[S@@+]([O-])c1c(C(F)(F)F)ccc(C(=O)Nc2nnc(C)o2)c1Br [Compound 544] | 5 (Level 5: growth control rate is above 85%) | 5 (Level 5: growth control rate is above 85%) |  | 5 (Level 5: growth control rate is above 85%) | 5 (Level 5: growth control rate is above 85%) |
| CCC[S@@+]([O-])c1c(C(F)(F)F)ccc(C(=O)Nc2nnc(C)o2)c1I [Compound 545] | 5 (Level 5: growth control rate is above 85%) | 5 (Level 5: growth control rate is above 85%) |  | 5 (Level 5: growth control rate is above 85%) | 5 (Level 5: growth control rate is above 85%) |
| CCC[S@@+]([O-])c1c(C(F)(F)F)ccc(C(=O)Nc2nnc(C)o2)c1C#N [Compound 546] | 5 (Level 5: growth control rate is above 85%) | 5 (Level 5: growth control rate is above 85%) |  | 5 (Level 5: growth control rate is above 85%) | 5 (Level 5: growth control rate is above 85%) |
| CCC[S@@+]([O-])c1c(C(F)(F)F)ccc(C(=O)Nc2nnc(C)o2)c1SCOC [Compound 573] | 5 (Level 5: growth control rate is above 85%) | 5 (Level 5: growth control rate is above 85%) |  | 5 (Level 5: growth control rate is above 85%) | 5 (Level 5: growth control rate is above 85%) |
